According to patent publication US20240043427A1 (Gilead Sciences, Inc., priority 2020, published 2024):

Key:
CD73 [1] = target: T1, CD73 (Homo sapiens (Human), UniProt P21589); type: biochemical; conditions: 1 mM NaH2PO4 in enzyme buffer, CD73 0.3 nM, AMP 15 uM
CD73 [2] = target: T1, CD73; assay: MDA-MB-231 Cell Based CD73 Activity Assay (DMEM); conditions: MDA-MB-231-GFP cells, DMEM medium with 10% human plasma, 200 uM AMP

T1 sequence (P21589 27-574): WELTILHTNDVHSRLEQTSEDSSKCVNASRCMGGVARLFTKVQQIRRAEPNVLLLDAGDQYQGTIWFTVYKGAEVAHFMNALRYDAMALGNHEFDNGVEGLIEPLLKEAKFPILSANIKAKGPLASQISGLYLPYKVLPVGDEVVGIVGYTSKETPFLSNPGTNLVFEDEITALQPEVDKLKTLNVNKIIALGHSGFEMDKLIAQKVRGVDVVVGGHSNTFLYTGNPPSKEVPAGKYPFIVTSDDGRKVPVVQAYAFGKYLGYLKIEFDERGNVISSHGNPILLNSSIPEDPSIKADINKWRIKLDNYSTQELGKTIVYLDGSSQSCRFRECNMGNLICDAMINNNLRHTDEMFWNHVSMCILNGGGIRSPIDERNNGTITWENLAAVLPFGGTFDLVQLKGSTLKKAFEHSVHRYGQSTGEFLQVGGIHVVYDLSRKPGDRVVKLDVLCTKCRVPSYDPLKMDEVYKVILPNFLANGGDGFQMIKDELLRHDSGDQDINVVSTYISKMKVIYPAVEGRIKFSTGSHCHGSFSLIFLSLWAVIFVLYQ

O=c1[nH]cc(-c2cc([C@H]3C[C@@H]3c3ccc4c(C(F)(F)F)nn(CC(F)(F)F)c4c3)c3ncc(F)n3n2)c(=O)[nH]1 [Example 329, 5-(3-fluoro-8-((1S,2S)-2-(1-(2,2,2-trifluoroethyl)-3-(trifluoromethyl)-1H-indazol-6-yl)cyclopropyl)imidazo[1,2-b]pyridazin-6-yl)pyrimidine-2,4(1H,3H)-dione]
IC50 (CD73 [1]): 0.64 nM | EC50 (CD73 [2]): 0.71 nM

O=c1[nH]cc(-c2cc(N3C[C@H](Oc4cc(C(F)(F)F)ccn4)C(F)(F)C3)c3nccn3n2)c(=O)[nH]1 [Example 330, (S)-5-(8-(3,3-difluoro-4-((4-(trifluoromethyl)pyridin-2-yl)oxy)pyrrolidin-1-yl)imidazo[1,2-b]pyridazin-6-yl)pyrimidine-2,4(1H,3H)-dione]
IC50 (CD73 [1]): 1.07 nM | EC50 (CD73 [2]): 0.51 nM

O=c1[nH]cc(-c2cc(N3C[C@@H](Oc4cc(C(F)(F)F)ccn4)C(F)(F)C3)c3nccn3n2)c(=O)[nH]1 [Example 331, (R)-5-(8-(3,3-difluoro-4-((4-(trifluoromethyl)pyridin-2-yl)oxy)pyrrolidin-1-yl)imidazo[1,2-b]pyridazin-6-yl)pyrimidine-2,4(1H,3H)-dione]
IC50 (CD73 [1]): 16.2 nM | EC50 (CD73 [2]): 11.1 nM

O=c1[nH]cc(-c2cc(N3C[C@@H](Oc4ccc(OC(F)F)cn4)C(F)(F)C3)c3nccn3n2)c(=O)[nH]1 [Example 332, (R)-5-(8-(4-((5-(difluoromethoxy)pyridin-2-yl)oxy)-3,3-difluoropyrrolidin-1-yl)imidazo[1,2-b]pyridazin-6-yl)pyrimidine-2,4(1H,3H)-dione]
IC50 (CD73 [1]): 8.61 nM | EC50 (CD73 [2]): 26.9 nM

O=c1[nH]cc(-c2cc(N3C[C@H](Oc4ccc(OC(F)F)cn4)C(F)(F)C3)c3nccn3n2)c(=O)[nH]1 [Example 333, (S)-5-(8-(4-((5-(difluoromethoxy)pyridin-2-yl)oxy)-3,3-difluoropyrrolidin-1-yl)imidazo[1,2-b]pyridazin-6-yl)pyrimidine-2,4(1H,3H)-dione]
IC50 (CD73 [1]): 0.89 nM | EC50 (CD73 [2]): 1.91 nM

O=c1[nH]cc(-c2cc(N3C[C@@H](Oc4ccc(OC(F)(F)F)cn4)C(F)(F)C3)c3nccn3n2)c(=O)[nH]1 [Example 334, (R)-5-(8-(3,3-difluoro-4-((5-(trifluoromethoxy)pyridin-2-yl)oxy)pyrrolidin-1-yl)imidazo[1,2-b]pyridazin-6-yl)pyrimidine-2,4(1H,3H)-dione]
IC50 (CD73 [1]): 24.4 nM | EC50 (CD73 [2]): 118 nM

O=c1[nH]cc(-c2cc(N3C[C@H](Oc4ccc(OC(F)(F)F)cn4)C(F)(F)C3)c3nccn3n2)c(=O)[nH]1 [Example 335, (S)-5-(8-(3,3-difluoro-4-((5-(trifluoromethoxy)pyridin-2-yl)oxy)pyrrolidin-1-yl)imidazo[1,2-b]pyridazin-6-yl)pyrimidine-2,4(1H,3H)-dione]
IC50 (CD73 [1]): 2.8 nM | EC50 (CD73 [2]): 6.77 nM

O=c1[nH]cc(-c2cc(N3C[C@@H](Oc4ccc(OC(F)(F)C(F)(F)F)cn4)C(F)(F)C3)c3nccn3n2)c(=O)[nH]1 [Example 336, (R)-5-(8-(3,3-difluoro-4-((5-(perfluoroethoxy)pyridin-2-yl)oxy)pyrrolidin-1-yl)imidazo[1,2-b]pyridazin-6-yl)pyrimidine-2,4(1H,3H)-dione]
IC50 (CD73 [1]): 34.9 nM | EC50 (CD73 [2]): > 250 nM

O=c1[nH]cc(-c2cc(N3C[C@H](Oc4ccc(OC(F)(F)C(F)(F)F)cn4)C(F)(F)C3)c3nccn3n2)c(=O)[nH]1 [Example 337, (S)-5-(8-(3,3-difluoro-4-((5-(perfluoroethoxy)pyridin-2-yl)oxy)pyrrolidin-1-yl)imidazo[1,2-b]pyridazin-6-yl)pyrimidine-2,4(1H,3H)-dione]
IC50 (CD73 [1]): 3.29 nM | EC50 (CD73 [2]): 15.9 nM

N#Cc1ccc(O[C@@H]2CN(c3cc(-c4c[nH]c(=O)[nH]c4=O)nn4ccnc34)CC2(F)F)nc1 [Example 338, (R)-6-((1-(6-(2,4-dioxo-1,2,3,4-tetrahydropyrimidin-5-yl)imidazo[1,2-b]pyridazin-8-yl)-4,4-difluoropyrrolidin-3-yl)oxy)nicotinonitrile]
IC50 (CD73 [1]): 10.9 nM | EC50 (CD73 [2]): 72.8 nM

N#Cc1ccc(O[C@H]2CN(c3cc(-c4c[nH]c(=O)[nH]c4=O)nn4ccnc34)CC2(F)F)nc1 [Example 339, (S)-6-((1-(6-(2,4-dioxo-1,2,3,4-tetrahydropyrimidin-5-yl)imidazo[1,2-b]pyridazin-8-yl)-4,4-difluoropyrrolidin-3-yl)oxy)nicotinonitrile]
IC50 (CD73 [1]): 0.91 nM | EC50 (CD73 [2]): 2.6 nM

O=c1[nH]cc(-c2cc(N3CC(Oc4cnc(C(F)(F)F)cn4)C(F)(F)C3)c3nccn3n2)c(=O)[nH]1 (centres unmarked) [Example 340, 5-(8-(3,3-difluoro-4-((5-(trifluoromethyl)pyrazin-2-yl)oxy)pyrrolidin-1-yl)imidazo[1,2-b]pyridazin-6-yl)pyrimidine-2,4(1H,3H)-dione]
IC50 (CD73 [1]): 1.48 nM | EC50 (CD73 [2]): 19 nM

O=c1[nH]cc(-c2cc(N3C[C@H](Oc4cc(C(F)F)ccn4)C(F)(F)C3)c3nccn3n2)c(=O)[nH]1 [Example 341, (S)-5-(8-(4-((4-(difluoromethyl)pyridin-2-yl)oxy)-3,3-difluoropyrrolidin-1-yl)imidazo[1,2-b]pyridazin-6-yl)pyrimidine-2,4(1H,3H)-dione]
IC50 (CD73 [1]): 0.43 nM | EC50 (CD73 [2]): 0.53 nM

N#Cc1ccnc(O[C@H]2CN(c3cc(-c4c[nH]c(=O)[nH]c4=O)nn4ccnc34)CC2(F)F)c1 [Example 342, 2-[(3S)-1-[6-(2,4-dioxo-1H-pyrimidin-5-yl)imidazo[1,2-b]pyridazin-8-yl]-4,4-difluoro-pyrrolidin-3-yl]oxypyridine-4-carbonitrile]
IC50 (CD73 [1]): 1.4 nM | EC50 (CD73 [2]): 3.82 nM

O=c1[nH]cc(-c2cc(N3CC(OC(F)F)C4(CC4)C3)c3nccn3n2)c(=O)[nH]1 (centres unmarked) [Example 343, 5-[8-[7-(difluoromethoxy)-5-azaspiro[2.4]heptan-5-yl]imidazo[1,2-b]pyridazin-6-yl]-1H-pyrimidine-2,4-dione]
IC50 (CD73 [1]): 48.2 nM | EC50 (CD73 [2]): 129 nM

O=c1[nH]cc(-c2cc(N3CC(O)C4(CC4)C3)c3nccn3n2)c(=O)[nH]1 (centres unmarked) [Example 344, 5-[8-(7-hydroxy-5-azaspiro[2.4]heptan-5-yl)imidazo[1,2-b]pyridazin-6-yl]-1H-pyrimidine-2,4-dione]
IC50 (CD73 [1]): 38.4 nM | EC50 (CD73 [2]): 97 nM

O=c1[nH]cc(-c2cc(N3CC(Oc4ccc(C(F)(F)F)cn4)C4(CC4)C3)c3nccn3n2)c(=O)[nH]1 (centres unmarked) [Example 345, 5-[8-[7-[[5-(trifluoromethyl)-2-pyridyl]oxy]-5-azaspiro[2.4]heptan-5-yl]imidazo[1,2-b]pyridazin-6-yl]-1H-pyrimidine-2,4-dione]
IC50 (CD73 [1]): 10.2 nM | EC50 (CD73 [2]): 98 nM

O=c1[nH]cc(-c2cc(N3CC(c4ccccc4)C(F)(F)C3)c3nccn3n2)c(=O)[nH]1 (centres unmarked) [Example 346, 5-(8-(3,3-difluoro-4-phenylpyrrolidin-1-yl)imidazo[1,2-b]pyridazin-6-yl)pyrimidine-2,4(1H,3H)-dione]
IC50 (CD73 [1]): 6.08 nM | EC50 (CD73 [2]): 24.4 nM

O=c1[nH]cc(-c2cc(N3CC[C@@H](OC(F)F)C3)c3nccn3n2)c(=O)[nH]1 [Example 347, (R)-5-(8-(3-(difluoromethoxy)pyrrolidin-1-yl)imidazo[1,2-b]pyridazin-6-yl)pyrimidine-2,4(1H,3H)-dione]
IC50 (CD73 [1]): 4.39 nM | EC50 (CD73 [2]): 11.9 nM

O=c1[nH]cc(-c2cc(N3CC[C@H](OC(F)F)C3)c3nccn3n2)c(=O)[nH]1 [Example 348, (S)-5-(8-(3-(difluoromethoxy)pyrrolidin-1-yl)imidazo[1,2-b]pyridazin-6-yl)pyrimidine-2,4(1H,3H)-dione]
IC50 (CD73 [1]): 54 nM | EC50 (CD73 [2]): 121 nM

COC1CN(c2cc(-c3c[nH]c(=O)[nH]c3=O)nn3ccnc23)CC12CC2 (centres unmarked) [Example 349, 5-(8-(7-methoxy-5-azaspiro[2.4]heptan-5-yl)imidazo[1,2-b]pyridazin-6-yl)pyrimidine-2,4(1H,3H)-dione]
IC50 (CD73 [1]): 148 nM | EC50 (CD73 [2]): 124 nM

O=c1[nH]cc(-c2cc(N3CC(F)(F)C4(CC4)C3)n3nccc3n2)c(=O)[nH]1 [Example 350, 5-(7-(7,7-difluoro-5-azaspiro[2.4]heptan-5-yl)pyrazolo[1,5-a]pyrimidin-5-yl)pyrimidine-2,4(1H,3H)-dione]
IC50 (CD73 [1]): 12 nM | EC50 (CD73 [2]): 99.3 nM

O=c1[nH]cc(-c2cc(N3CC(F)(F)C(F)(F)C3)c3ncc(F)n3n2)c(=O)[nH]1 [Example 351, 5-(3-fluoro-8-(3,3,4,4-tetrafluoropyrrolidin-1-yl)imidazo[1,2-b]pyridazin-6-yl)pyrimidine-2,4(1H,3H)-dione]
IC50 (CD73 [1]): 10.6 nM | EC50 (CD73 [2]): 56.4 nM

O=c1[nH]cc(-c2cc(N3C[C@@H]4[C@H](C3)[C@H]4C(F)(F)F)c3nccn3n2)c(=O)[nH]1 [Example 352, 5-(8-((1R,5S,6r)-6-(trifluoromethyl)-3-azabicyclo[3.1.0]hexan-3-yl)imidazo[1,2-b]pyridazin-6-yl)pyrimidine-2,4(1H,3H)-dione]
IC50 (CD73 [1]): > 250 nM | EC50 (CD73 [2]): 1000 nM

O=c1[nH]cc(-c2cc(N3CCC(C(F)(F)F)(C(F)(F)F)C3)c3nccn3n2)c(=O)[nH]1 [Example 353, 5-(8-(3,3-bis(trifluoromethyl)pyrrolidin-1-yl)imidazo[1,2-b]pyridazin-6-yl)pyrimidine-2,4(1H,3H)-dione]
IC50 (CD73 [1]): 69.6 nM | EC50 (CD73 [2]): 109 nM

N#CC12CC1CN(c1cc(-c3c[nH]c(=O)[nH]c3=O)nn3ccnc13)C2 (centres unmarked) [Example 354, 3-(6-(2,4-dioxo-1,2,3,4-tetrahydropyrimidin-5-yl)imidazo[1,2-b]pyridazin-8-yl)-3-azabicyclo[3.1.0]hexane-1-carbonitrile]
IC50 (CD73 [1]): 90.8 nM | EC50 (CD73 [2]): 401 nM

O=c1[nH]cc(-c2cc(N3CC4CC4(F)C3)c3nccn3n2)c(=O)[nH]1 (centres unmarked) [Example 355, 5-(8-(1-fluoro-3-azabicyclo[3.1.0]hexan-3-yl)imidazo[1,2-b]pyridazin-6-yl)pyrimidine-2,4(1H,3H)-dione]
IC50 (CD73 [1]): 7.56 nM | EC50 (CD73 [2]): 14.5 nM

O=c1[nH]cc(-c2cc(N3CC(F)(F)C(F)(F)C3)n3ncnc3n2)c(=O)[nH]1 [Example 356, 5-(7-(3,3,4,4-tetrafluoropyrrolidin-1-yl)-[1,2,4]triazolo[1,5-a]pyrimidin-5-yl)pyrimidine-2,4(1H,3H)-dione]
IC50 (CD73 [1]): > 250 nM | EC50 (CD73 [2]): 916 nM
